Results as given in patent US6890361B2, “Modification of printed and dyed materials” (Novozymes North America, Inc., priority 2001, dated 2005).

Legend:
cutinase = conditions: Table 3
Protocol: 5 mg/ml dye stock (suspension in 20 mM pH8 phosphate buffer) was made for each commercial dye. Since the absorbance of an opaque dye suspension cannot be detected by UV-vis spectrometer, these fives dyes were dissolved in acetone in the concentration of 50˜100 mg/L and the absorbance of each dye solution was measured as reference (see Table 1).
After 10 min. preheating in waterbath, each sample was dosed with 62.5 mg/L cutinase and incubated for 10 min. The samples were then taken out for UV-vis measurement.

[1] = Alkaline (NaOH) treatment of disperse dye suspension, UV-vis absorbance of solubilized dye; assay type: physicochemical; design: key: #: Means absorbance was not detectable by UV-vis spectrometer due to the turbidity of the suspension; conditions: in water, [Dye] = 50 mg/L, Table 3
Protocol: This procedure was repeated for the alkaline treatment at 80° C.

[2] = UV-vis absorbance of disperse dyes dissolved in acetone (reference); assay type: physicochemical; conditions: dye concentration 50 mg/l

CCC(=O)Nc1cc(N(CCOC(C)=O)CCOC(C)=O)ccc1N=Nc1ccc([N+](=O)[O-])cc1Cl [Disperse Red 167]
effect of cutinase treatment on dye solubility (in words) (cutinase; cutinase treated): increase in dye solubility
Cutinase Treated (70 C.) Abs@λ_max (cutinase; in water, [Dye] = 50 mg/L, λ_max 480 nm): 0.4249 AU
NaOH Treated (70 C.) Abs@λ_max ([1]; 70 C.): #
NaOH Treated (80 C.) Abs@λ_max ([1]; 80 C.): #
Abs@λ max [2]: 1.23
